Laboratory results as given in patent US20070208166A1, “Tao Kinase Modulators And Method Of Use” (Exelixis, Inc., priority 2003, published 2007).

How the values were obtained:
Assay type in all cases: biochemical
[1] = target: T1, KIAA 1361 (baculovirus expressed human KIAA 1361 kinase domain 2-322) (Homo sapiens, UniProt Q7L7X3); assay: KIAA 1361 Luciferase-Coupled Chemiluminescent Kinase assay (LCCA); details: 2 μM ATP, 10 μM MBP, 12 nM KIAA 1361, 2 hours; read-out: KIAA1361 inhibition IC50
T1 construct: human KIAA 1361 kinase domain 2-322; made in house
T1 sequence (Q7L7X3 2-322): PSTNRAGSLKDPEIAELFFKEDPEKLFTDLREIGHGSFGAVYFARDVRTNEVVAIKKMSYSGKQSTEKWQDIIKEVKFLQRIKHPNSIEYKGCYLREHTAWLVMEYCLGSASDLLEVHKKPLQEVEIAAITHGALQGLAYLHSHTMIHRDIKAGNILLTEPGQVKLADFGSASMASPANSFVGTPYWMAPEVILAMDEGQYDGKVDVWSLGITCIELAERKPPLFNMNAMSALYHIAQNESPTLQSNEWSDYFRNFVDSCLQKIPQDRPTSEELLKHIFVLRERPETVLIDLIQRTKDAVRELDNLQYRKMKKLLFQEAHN
Protocol: (§1) Kinase activity and compound inhibition are investigated using one or more of the three assay formats described below. The ATP concentrations for each assay are selected to be close to the Michaelis-Menten constant (KM) for each individual kinase. Dose-response experiments are performed at 10 different inhibitor concentrations in a 384-well plate format. The data are fitted to four-parameter equation (2) below; where Y is the observed signal, X is the inhibitor concentration, Min is the background signal in the absence of enzyme (0% enzyme activity), Max is the signal in the absence of inhibitor (100% enzyme activity), IC50 is the inhibitor concentration at 50% enzyme inhibition and H represents the empirical Hill's slope to measure the cooperativity. Typically H is close to unity. Y=Min+(Max−Min)/(1+(X/IC50)ˆH) Equation (2) KIAA 1361 Assay: […]
(§2) KIAA 1361 biochemical activity was assessed using a Luciferase-Coupled Chemiluminescent Kinase assay (LCCA) format. Kinase activity was measured as the percent ATP remaining following the kinase reaction. Remaining ATP was detected by luciferase-luciferin-coupled chemiluminescence. Specifically, the reaction was initiated by mixing test compounds, 2 μM ATP, 10 μM MBP and 12 nM KIAA 1361 (baculovirus expressed human KIAA 1361 kinase domain 2-322) in a 20 uL assay buffer (20 mM Tris-HCL pH7.5, 10 mM MgCl2, 0.02% Triton X-100, 100 mM DTT, 2 mM MnCl2). The mixture is incubated at ambient temperature for 2 hours after which 20 uL luciferase-luciferin mix is added and the chemiluminescent signal read using a Wallac Victor^2 reader. The luciferase-luciferin mix consists of 50 mM HEPES, pH 7.8, 8.5 ug/mL oxalic acid (pH 7.8), 5 (or 50) mM DTT, 0.4% Triton X-100, 0.25 mg/mL coenzyme A, 63 uM AMP, 28 ug/mL luciferin and 40,000 units of light/mL luciferase.

TAO = target: T2, TAO (Homo sapiens, UniProt Q9UL54); assay: TAO Luciferase-Coupled Chemiluminescent Kinase assay (LCCA); details: 2 μM ATP, 10 μM MBP, 12 nM TAO, 2 hours; read-out: TAO inhibition IC50
T2 sequence (Q9UL54 1-1235): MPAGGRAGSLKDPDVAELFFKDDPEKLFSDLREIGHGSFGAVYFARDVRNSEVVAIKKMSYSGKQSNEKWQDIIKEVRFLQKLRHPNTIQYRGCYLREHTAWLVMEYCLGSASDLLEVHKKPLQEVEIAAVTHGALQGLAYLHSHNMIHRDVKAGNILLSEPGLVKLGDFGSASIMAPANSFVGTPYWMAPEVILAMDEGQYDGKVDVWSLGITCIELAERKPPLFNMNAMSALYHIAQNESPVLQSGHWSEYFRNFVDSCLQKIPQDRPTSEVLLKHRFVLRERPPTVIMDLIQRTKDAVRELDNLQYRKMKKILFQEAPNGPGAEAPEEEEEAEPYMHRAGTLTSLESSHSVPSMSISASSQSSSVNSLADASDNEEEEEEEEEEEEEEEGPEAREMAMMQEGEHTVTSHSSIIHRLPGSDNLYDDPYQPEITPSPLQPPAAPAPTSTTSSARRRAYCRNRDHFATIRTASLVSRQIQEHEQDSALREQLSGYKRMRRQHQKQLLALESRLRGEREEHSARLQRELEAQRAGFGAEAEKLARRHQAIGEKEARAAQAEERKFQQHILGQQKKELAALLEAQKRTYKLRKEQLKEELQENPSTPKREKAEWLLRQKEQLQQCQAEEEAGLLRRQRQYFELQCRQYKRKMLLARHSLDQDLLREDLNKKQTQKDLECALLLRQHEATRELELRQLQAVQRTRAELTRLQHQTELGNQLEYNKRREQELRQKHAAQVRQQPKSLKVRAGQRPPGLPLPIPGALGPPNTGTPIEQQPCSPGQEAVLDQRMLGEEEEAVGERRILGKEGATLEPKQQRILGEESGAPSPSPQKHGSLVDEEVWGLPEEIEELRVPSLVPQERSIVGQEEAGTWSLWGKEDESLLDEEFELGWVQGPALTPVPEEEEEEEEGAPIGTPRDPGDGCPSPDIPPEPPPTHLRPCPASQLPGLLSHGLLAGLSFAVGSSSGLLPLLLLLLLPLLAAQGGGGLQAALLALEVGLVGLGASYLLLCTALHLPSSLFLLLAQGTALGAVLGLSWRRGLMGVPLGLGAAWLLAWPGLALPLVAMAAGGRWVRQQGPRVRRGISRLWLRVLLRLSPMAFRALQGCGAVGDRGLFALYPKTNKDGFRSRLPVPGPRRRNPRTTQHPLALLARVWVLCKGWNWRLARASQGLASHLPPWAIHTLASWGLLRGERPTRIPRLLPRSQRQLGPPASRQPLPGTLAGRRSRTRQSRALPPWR
Protocol: as §1
as §2, with “TAO biochemical” for “KIAA 1361 biochemical”, “nM TAO” for “nM KIAA 1361”, “mM […],” for “mM HEPES,”, “[…]” for “0.25 mg/mL”

JIK = target: T3, JIK (Homo sapiens, UniProt Q9H2K8); assay: JIK Luciferase-Coupled Chemiluminescent Kinase assay (LCCA); details: 2 μM ATP, 10 μM MBP, 6 nM JIK, 2 hours; read-out: JIK inhibition IC50
T3 construct: 6 nM JIK (baculovirus expressed human KIAA 1361 kinase domain2-318); made in house
T3 sequence (Q9H2K8 2-318): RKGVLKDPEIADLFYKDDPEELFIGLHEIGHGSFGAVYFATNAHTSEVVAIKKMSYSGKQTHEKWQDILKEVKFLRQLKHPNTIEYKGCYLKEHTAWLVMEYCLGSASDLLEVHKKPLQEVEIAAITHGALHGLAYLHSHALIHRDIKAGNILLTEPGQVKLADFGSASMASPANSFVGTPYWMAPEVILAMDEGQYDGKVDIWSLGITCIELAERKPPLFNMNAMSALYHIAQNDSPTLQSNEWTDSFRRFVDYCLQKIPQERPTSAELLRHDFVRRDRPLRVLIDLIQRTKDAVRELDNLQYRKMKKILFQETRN
Protocol: as §1
as §2, with “JIK biochemical” for “KIAA 1361 biochemical”, “and 6” for “and 12”, “nM JIK” for “nM KIAA 1361”, “kinase domain2-318)” for “kinase domain 2-322)”

IC50 [1]	IC50 (TAO)	IC50 (JIK)	Compound
50 to 500 nM	50 to 500 nM	< 50 nM	O=C(CNC(=O)c1ccc(-c2cnco2)cc1)NC1CCCc2ccccc21 (stereo not drawn) [Entry 71, 4-(1,3-oxazol-5-yl)-N-[2-oxo-2-(1,2,3,4-tetrahydronaphthalen-1-ylamino)ethyl]benzamide]
> 5000 nM	> 5000 nM	> 5000 nM	O=C(CNC(=O)NCCc1ccc(-c2ccccc2)cc1)NC1CCCc2ccccc21 (stereo not drawn) [Entry 72, N˜2˜-{[(2-biphenyl-4-ylethyl)amino]carbonyl}-N-(1,2,3,4-tetrahydronaphthalen-1-yl)glycinamide]
> 5000 nM	> 5000 nM	500 to 5000 nM	O=C(CNC(=O)c1ccc(N2CCOCC2)cc1)NC1CCCc2ccccc21 (stereo not drawn) [Entry 58, 4-morpholin-4-yl-N-[2-oxo-2-(1,2,3,4-tetrahydronaphthalen-1-ylamino)ethyl]benzamide]
> 5000 nM	> 5000 nM	> 5000 nM	CCOCCCNC(=O)c1ccc(C(=O)NCC2COc3ccccc3O2)cc1N (stereo not drawn) [Entry 62, 2-amino-N-˜4˜-(2,3-dihydro-1,4-benzodioxin-2-ylmethyl)-N˜1˜-[3-(ethyloxy)propyl]benzene-1,4-dicarboxamide]
50 to 500 nM	50 to 500 nM	50 to 500 nM	O=C(CNC(=O)c1ccc(C2CCCCC2)cc1)NC1CCCc2ccccc21 (stereo not drawn) [Entry 50, 4-cyclohexyl-N-[2-oxo-2-(1,2,3,4-tetrahydronaphthalen-1-ylamino)ethyl]benzamide]
50 to 500 nM	50 to 500 nM	< 50 nM	O=C(NC1CCCc2ccccc21)C(NC(=O)C(c1ccccc1)C1CCCC1)c1cccnc1 (stereo not drawn) [Entry 7, 2-cyclopentyl-N-[2-oxo-1-pyridin-3-yl-2-(1,2,3,4-tetrahydronaphthalen-1-ylamino)ethyl]-2-phenylacetamide]
500 to 5000 nM	500 to 5000 nM	50 to 500 nM	O=C(CNC(=O)c1ccc2ncccc2c1)NC1CCCc2ccccc21 (stereo not drawn) [Entry 80, N-[2-oxo-2-(1,2,3,4-tetrahydronaphthalen-1-ylamino)ethyl]quinoline-6-carboxamide]
50 to 500 nM	500 to 5000 nM	< 50 nM	COc1cc2cc(C(=O)N[C@@H](Cc3c[nH]c4ccccc34)C(=O)NC3CCCc4ccccc43)[nH]c2cc1OC (stereo partly drawn) [Entry 13, Nalpha-{[5,6-bis(methyloxy)-1H-indol-2-yl]carbonyl}-N-(1,2,3,4-tetrahydronaphthalen-1-yl)tryptophanamide]
500 to 5000 nM	> 5000 nM	500 to 5000 nM	O=C(CNC(=O)c1ccc2ccccc2c1)NC1CCCc2ccccc21 (stereo not drawn) [Entry 44, N-[2-oxo-2-(1,2,3,4-tetrahydronaphthalen-1-ylamino)ethyl]naphthalene-2-carboxamide]
50 to 500 nM	500 to 5000 nM	50 to 500 nM	COc1ccc2nc(NC(=O)CCCNC(=O)Cn3cnc4sc5c(c4c3=O)CCCC5)sc2c1 [Entry 23, N-[6-(methyloxy)-1,3-benzothiazol-2-yl]-4-{[(4-oxo-5,6,7,8-tetrahydro[1]benzothieno[2,3-d]pyrimidin-3(4H)-yl)acetyl]amino}butanamide]
> 5000 nM	> 5000 nM	> 5000 nM	O=C(CNC(=O)c1cnc2ccccc2c1)Nc1cccc2c1CCCC2 [Entry 87, N-[2-oxo-2-(5,6,7,8-tetrahydronaphthalen-1-ylamino)ethyl]quinoline-3-carboxamide]
> 5000 nM	> 5000 nM	> 5000 nM	O=C(CC(NC(=O)c1ccccc1)c1ccccc1)Nc1nc2ccc(O)cc2s1 (stereo not drawn) [Entry 97, N-{3-[(6-hydroxy-1,3-benzothiazol-2-yl)amino]-3-oxo-1-phenylpropyl)benzamide]
> 5000 nM	> 5000 nM	> 5000 nM	CCc1ccc(-c2ccc(C(=O)NCC(=O)NCC3COc4ccccc4O3)cc2)cc1 (stereo not drawn) [Entry 65, N-{2-[(2,3-dihydro-1,4-benzodioxin-2-ylmethyl)amino]-2-oxoethyl}-4′-ethylbiphenyl-4-carboxamide]
